# Measured values taken from patent US20070286892A1, “COMPOSITIONS AND METHODS FOR PREVENTING OR REDUCING POSTOPERATIVE ILEUS AND GASTRIC STASIS IN MAMMALS” (priority 2006, published 2007).
# Columns and labels:
# [1] = test system: gastric emptying and intestinal motility; test: Charcoal transit model of postoperative ileus after abdominal surgery with cecal manipulation; assay type: in vivo, rat; conditions: charcoal distance 4 h after oral meal, percent of full intestinal length, male Sprague Dawley rats
# Description: The charcoal transit model is an accetable and established model to study the effects of abdominal surgery on intestinal motility. We followed the procedure as described by De Winter et al. (1997) (Reference: Effect of adrenergic and nitrergic blockade on experimental ileus in rats. British Journal of Pharmacology (1997) 120, 464-468. Benedicte Y. De Winter, Guy E. Boeckxstaens, Joris G. De Man, Tom G. Moreels, Arnold G. Herman & Paul A. Pelckmans). The model simulates the abdominal procedure in human and tests for gastric emptying and intestinal motility by the transfer of a charcoal meal fed to the animals.
# Male Sprague Dawley rats, weighing 250-275 g (8 in group) were anesthetized with a xylazine/ketamine cocktail, injected IM, the abdomen was shaved and disinfected with alcohol and Betadyne. A 2.5 cm incision was made from the xyphoid process caudally. The intestinal contents was exteriorized onto wet gauze. The cecum was manipulated gently for 1 minute. The abdominal contents were replaced, the treatment was applied and the body wall closed with 4-0 PDS for the fascia and muscle layers. The skin was closed with wound clips. Treatment groups included two control groups, surgery (incision only) and naïve, and […], high and low dose of Tranilast gel, high and low dose of Tranilast ORC, as well as gel alone and ORC alone. 8 rats were included in each group with a total of 64 rats. The high and low dose Tranilast gel and gel alone treatments were prepared as described in Example 1. The high and low dose Tranilast ORC and ORC alone treatments were prepared as described in Example 2.
# The rats were treated with an oral solution of charcoal (10%) in acacia gum (2%). Four hours following oral administration rats were euthanized with Euthasole. The intestines were exteriorized and the distance traveled by the charcoal meal was measured as well as the full length of the intestines (from the pylorus through the anus). Results are expressed as percent of distance traveled relative to the full length of the intestines.
# [2] = test system: adhesions; conditions: local delivery in gel (NaCMC) formulations at the surgical site; cited from earlier work
structure (smiles),measurement,setting,value
COc1ccc(/C=C/C(=O)Nc2ccccc2C(=O)O)cc1OC [Tranilast],% GI Transfer,"[1]; Gel preparation (3% Na-CMC), Tranilast high dose 18.0 mg applied locally",93.04%
same,% GI Transfer,"[1]; Gel preparation (3% Na-CMC), Tranilast low dose 1.8 mg applied locally",90.68%
same,% GI Transfer,"[1]; ORC preparation (INTERCEED mesh), Tranilast high dose 18.0 mg applied locally",62.18%
same,% GI Transfer,"[1]; ORC preparation (INTERCEED mesh), Tranilast low dose 1.8 mg applied locally",46.11%
same,Effects on wound healing at the surgical sites,[2],no obvious effects on wound healing
